Assay results published in ChEMBL document CHEMBL1133712, “Monocyclic L-nucleosides with type 1 cytokine-inducing activity” (2000).

Tests used:
Format in all cases: functional, Homo sapiens
Design in all cases: concentration or dose not given beside the values
[1] = Compounds was tested for the effect of L-nucleosides of ribavirin on SEB (staphylococcal enterotoxin B)-stimulated T-cell expression of the type 1 cytokine IFN-gamma
[2] = Compounds was tested for the effect of L-nucleosides of ribavirin on SEB (staphylococcal enterotoxin B)-stimulated T-cell expression of the type 1 cytokine IL-2.
[3] = Compounds was tested for the effect of L-nucleosides of ribavirin on SEB (staphylococcal enterotoxin B)-stimulated T-cell expression of the type 1 cytokine TNF-alpha

## NC(=O)c1ncn([C@H]2O[C@@H](CO)[C@@H](O)[C@@H]2O)n1
[1]
  Control: 119%
[2]
  Control: 100%
[3]
  Control: 132%

## NC(=O)c1ncn([C@H]2O[C@@H](CO)C[C@@H]2O)n1
[1]
  Control: 114%
[2]
  Control: 115%
[3]
  Control: 109%

## NC(=O)c1ncn([C@@H]2C[C@@H](O)[C@H](CO)O2)n1
[1]
  Control: 110%
[2]
  Control: 108%
[3]
  Control: 119%

## NC(=O)c1ncn([C@H]2O[C@@H](CO)[C@H](O)[C@@H]2O)n1
[1]
  Control: 122%
[2]
  Control: 131%
[3]
  Control: 144%

## Cl.N=C(N)c1ncn([C@H]2O[C@@H](CO)[C@H](O)[C@@H]2O)n1
[1]
  Control: 128%
[2]
  Control: 133%
[3]
  Control: 120%

## NC(=O)c1ncn([C@@H]2O[C@H](CO)[C@@H](O)[C@H]2O)n1 [RIBAVIRIN]
[1]
  Control: 131%
[2]
  Control: 143%
[3]
  Control: 124%
